A value given as a limit tells only on which side of the number the result lay.

A word on the IC50: it is the concentration that gives 50% inhibition.

The target of test [1] is T1, PRMT5 (Homo sapiens, UniProt O14744).
T1 construct: purchased Viva (custom protein)
Kind of test: PRMT5 inhibition assay with SAM as cofactor. The test is classed as biochemical. As to conditions: against PRMT5 in the presence of SAM as cofactor. The source says: (§1) The Ki values can be calculated from the IC50 values as described in the Examples section. As detailed in the Examples section, for the assay performed in the presence of SAM, IC50=Ki×1.5 (Ki=IC50/1.5). For the assay performed in the presence of MTA, IC50=Ki×13.5 (Ki=IC50/13.5). Column 6 indicates the ratio between the Ki of compounds in the presence of SAM and the Ki of compounds in the presence of MTA

The target in test [2] is T1, PRMT5. Nature of the test: PRMT5 inhibition assay with no cofactor. As to conditions: against PRMT5 with no cofactor; read-out: No Co-factor IC50. The class given is biochemical.
Test [3] concerns the target T1, PRMT5. Kind of test: PRMT5 inhibition assay with MTA as cofactor. The class given is biochemical. As to conditions: for IC50: against PRMT5 with MTA as cofactor; for SAM/MTA Ratio: ratio of Ki in the presence of SAM to Ki in the presence of MTA, Ki=IC50/1.5 (SAM), Ki=IC50/13.5 (MTA).
Source text: as §1

For test [4], the system named is HAP1 MTAP-intact cell line. Nature of the test: SDMA in-cell western assay, HAP1 MTAP-intact. The note with it: Homo sapiens. The test is classed as cell-based. A digest of the protocol:
(§2)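 IC50 values come from an SDMA in-cell western run in isogenic HAP1 cells, either MTAP-null or expressing endogenous MTAP. The intact-to-deleted IC50 ratio is used to score MTAP selectivity.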

Test [5] relates to HAP1 MTAP-deleted cell line. Kind of test: SDMA in-cell western assay, HAP1 MTAP-deleted. The test is classed as cell-based. As to conditions: for IC50: Homo sapiens, HAP1 MTAP-deleted (MTAP-null) cell line; for MTAP Intact/Deleted Ratio: IC50 ratio HAP1 MTAP-intact / HAP1 MTAP-deleted, >=3 fold considered MTAP-selective. A digest of the protocol: as §2

T1 sequence (O14744 whole entry): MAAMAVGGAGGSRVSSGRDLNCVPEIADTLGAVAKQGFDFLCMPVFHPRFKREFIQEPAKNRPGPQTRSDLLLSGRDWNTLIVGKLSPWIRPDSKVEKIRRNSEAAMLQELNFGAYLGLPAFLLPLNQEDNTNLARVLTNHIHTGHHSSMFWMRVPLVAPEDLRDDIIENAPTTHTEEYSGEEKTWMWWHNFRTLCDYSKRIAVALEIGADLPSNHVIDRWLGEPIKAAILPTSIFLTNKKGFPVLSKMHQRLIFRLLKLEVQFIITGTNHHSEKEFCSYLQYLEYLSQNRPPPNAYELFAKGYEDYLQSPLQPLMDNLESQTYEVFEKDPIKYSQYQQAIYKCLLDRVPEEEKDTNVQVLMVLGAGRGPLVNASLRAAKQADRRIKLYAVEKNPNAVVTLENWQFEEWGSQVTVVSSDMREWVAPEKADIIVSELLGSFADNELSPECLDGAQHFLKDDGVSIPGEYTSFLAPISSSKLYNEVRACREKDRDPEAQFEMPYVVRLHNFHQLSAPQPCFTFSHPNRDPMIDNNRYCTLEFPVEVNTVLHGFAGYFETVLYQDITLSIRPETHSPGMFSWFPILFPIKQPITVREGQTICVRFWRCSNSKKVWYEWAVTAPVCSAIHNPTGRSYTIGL
T1 sequence (Q9BQA1 whole entry partner): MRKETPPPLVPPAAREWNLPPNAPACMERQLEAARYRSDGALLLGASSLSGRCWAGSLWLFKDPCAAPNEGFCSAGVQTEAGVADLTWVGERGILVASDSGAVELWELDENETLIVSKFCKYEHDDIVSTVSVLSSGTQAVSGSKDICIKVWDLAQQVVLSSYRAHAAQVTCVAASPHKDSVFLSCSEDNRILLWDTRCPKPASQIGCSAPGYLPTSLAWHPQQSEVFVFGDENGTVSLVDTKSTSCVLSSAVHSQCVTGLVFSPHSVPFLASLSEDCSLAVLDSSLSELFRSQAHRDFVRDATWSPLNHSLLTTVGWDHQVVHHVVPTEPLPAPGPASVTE

For the compound `COc1cc(C(=O)NC[C@@H](O)[C@@H]2Cc3ccc(OCc4ocnc4C)cc3CN2)cc(NC2CCC2)n1` [Compound 26, 2-(cyclobutylamino)-N—((R)-2-hydroxy-2-((S)-7-((4-methyloxazol-5-yl)methoxy)-1,2,3,4-tetrahydroisoquinolin-3-yl)ethyl)-6-methoxyisonicotinamide], the IC50 on PRMT5 [1] was 50 to 500 nM; on PRMT5 [2] it was 50 to 500 nM; against PRMT5 [3], less than 50 nM; in test [4] it was less than 1000 nM; in test [5], less than 1000 nM. Also, the “SAM/MTA Ratio” value at PRMT5 [3] is “A (a Ki ratio greater than or equal to 10 fold between the Ki in the presence of SAM and the Ki in the presence of MTA)”. In addition, in test [5], the “MTAP Intact/Deleted Ratio” value is “C* (an IC50 ratio of less than 3 fold between the IC50 in the HAP1 MTAP-intact cell line and the HAP1 MTAP-deleted cell line)”.
As to `Cc1ncoc1COc1ccc2c(c1)CN[C@H]([C@H](O)CNC(=O)c1cc(NC3CCC3)nc(N3CCCCC3)c1)C2` [Compound 31, 2-(cyclobutylamino)-N—((R)-2-hydroxy-2-((S)-7-((4-methyloxazol-5-yl)methoxy)-1,2,3,4-tetrahydroisoquinolin-3-yl)ethyl)-6-(piperidin-1-yl)isonicotinamide], the IC50 at PRMT5 [1] was 50 to 500 nM; at PRMT5 [2], 50 to 500 nM; against PRMT5 [3], 50 to 500 nM; in test [4], less than 1000 nM; in test [5] it was less than 1000 nM. On PRMT5 [3], the “SAM/MTA Ratio” value was “A (a Ki ratio greater than or equal to 10 fold between the Ki in the presence of SAM and the Ki in the presence of MTA)”. Also, the “MTAP Intact/Deleted Ratio” value in test [5] is “C* (an IC50 ratio of less than 3 fold between the IC50 in the HAP1 MTAP-intact cell line and the HAP1 MTAP-deleted cell line)”.
Turning to `Cc1ncoc1COc1ccc2c(c1)CN[C@H]([C@H](O)CNC(=O)c1cccc(NC3CCC3)c1)C2` [Compound 28, 3-(cyclobutylamino)-N—((R)-2-hydroxy-2-((S)-7-((4-methyloxazol-5-yl)methoxy)-1,2,3,4-tetrahydroisoquinolin-3-yl)ethyl)benzamide], the IC50 at PRMT5 [1] is 50 to 500 nM; at PRMT5 [2], 50 to 500 nM; on PRMT5 [3] it was less than 50 nM; in test [4], 1000 to 10000 nM; in test [5], less than 1000 nM. Besides, the “SAM/MTA Ratio” value at PRMT5 [3] was “A (a Ki ratio greater than or equal to 10 fold between the Ki in the presence of SAM and the Ki in the presence of MTA)”. Moreover, in test [5], the “MTAP Intact/Deleted Ratio” value was “A* (an IC50 ratio greater than or equal to 10 fold between the IC50 in the HAP1 MTAP-intact cell line and the HAP1 MTAP-deleted cell line)”.
In the case of `CC(=O)N1CCC(Nc2cc(C(=O)NC[C@@H](O)[C@@H]3Cc4ccc(OCc5ocnc5C)cc4CN3)ncn2)CC1` [Compound 41, 6-[(1-acetyl-4-piperidyl)amino]-N-[(2R)-2-hydroxy-2-[(3S)-7-[(4-methyloxazol-5-yl)methoxy]-1,2,3,4-tetrahydroisoquinolin-3-yl]ethyl]pyrimidine-4-carboxamide], the IC50 at PRMT5 [1] is 50 to 500 nM; at PRMT5 [2] it was 500 to 5000 nM; at PRMT5 [3], less than 50 nM; in test [4], no less than 10000 nM; in test [5], 1000 to 10000 nM. Also, at PRMT5 [3], the “SAM/MTA Ratio” value is “A (a Ki ratio greater than or equal to 10 fold between the Ki in the presence of SAM and the Ki in the presence of MTA)”. Moreover, in test [5], the “MTAP Intact/Deleted Ratio” value is “B* (an IC50 ratio greater than or equal to 3 fold but lower than 10 fold between the IC50 in the HAP1 MTAP-intact cell line and the HAP1 MTAP-deleted cell line)”.
On to `Cc1ncoc1COc1ccc2c(c1)CN[C@H]([C@H](O)CNC(=O)c1cc(NC3CCC3)nc(N3CCN(C)CC3)c1)C2` [Compound 52, 2-(cyclobutylamino)-N-[(2R)-2-hydroxy-2-[(3S)-7-[(4-methyloxazol-5-yl)methoxy]-1,2,3,4-tetrahydroisoquinolin-3-yl]ethyl]-6-(4-methylpiperazin-1-yl)pyridine-4-carboxamide], for which the IC50 was 50 to 500 nM on PRMT5 [1]; 50 to 500 nM on PRMT5 [2]; less than 50 nM on PRMT5 [3]; less than 1000 nM in test [4]; less than 1000 nM in test [5]. Besides, the “SAM/MTA Ratio” value on PRMT5 [3] is “A (a Ki ratio greater than or equal to 10 fold between the Ki in the presence of SAM and the Ki in the presence of MTA)”. For the same compound, in test [5], the “MTAP Intact/Deleted Ratio” value was “A* (an IC50 ratio greater than or equal to 10 fold between the IC50 in the HAP1 MTAP-intact cell line and the HAP1 MTAP-deleted cell line)”.
For the compound `CC(=O)N1CC(Nc2cc(C(=O)NC[C@@H](O)[C@@H]3Cc4ccc(OCc5ocnc5C)cc4CN3)cc(N3CCCCC3)n2)C1` [Compound 45, 2-[(1-acetylazetidin-3-yl)amino]-N-[(2R)-2-hydroxy-2-[(3S)-7-[(4-methyloxazol-5-yl)methoxy]-1,2,3,4-tetrahydroisoquinolin-3-yl]ethyl]-6-(1-piperidyl)pyridine-4-carboxamide], the concentration for half-maximal inhibition (IC50) on PRMT5 [1] was 50 to 500 nM; on PRMT5 [2] it was 50 to 500 nM; against PRMT5 [3], less than 50 nM; in test [4] it was no less than 10000 nM; in test [5] it was less than 1000 nM. The “SAM/MTA Ratio” value at PRMT5 [3] is “A (a Ki ratio greater than or equal to 10 fold between the Ki in the presence of SAM and the Ki in the presence of MTA)”. Besides, in test [5], the “MTAP Intact/Deleted Ratio” value was “A* (an IC50 ratio greater than or equal to 10 fold between the IC50 in the HAP1 MTAP-intact cell line and the HAP1 MTAP-deleted cell line)”.
For the compound `Cc1ncoc1COc1ccc2c(c1)CN[C@H]([C@H](O)CNC(=O)c1ccc3c(c1)CCN(C(=O)c1ccc(Br)cc1)C3)C2` [Compound 20, 2-(4-bromobenzoyl)-N—((R)-2-hydroxy-2-((S)-7-((4-methyloxazol-5-yl)methoxy)-1,2,3,4-tetrahydroisoquinolin-3-yl)ethyl)-1,2,3,4-tetrahydroisoquinoline-6-carboxamide], the IC50 on PRMT5 [1] is 50 to 500 nM; on PRMT5 [2] it was 50 to 500 nM; against PRMT5 [3], less than 50 nM; in test [4], 1000 to 10000 nM; in test [5], less than 1000 nM. Further, the “SAM/MTA Ratio” value on PRMT5 [3] is “A (a Ki ratio greater than or equal to 10 fold between the Ki in the presence of SAM and the Ki in the presence of MTA)”. The “MTAP Intact/Deleted Ratio” value in test [5] is “A* (an IC50 ratio greater than or equal to 10 fold between the IC50 in the HAP1 MTAP-intact cell line and the HAP1 MTAP-deleted cell line)”.
Turning to `CC(=O)N1CCC(Nc2cc(C(=O)NC[C@@H](O)[C@@H]3Cc4ccc(OCc5ocnc5C)cc4CN3)cc(N3CCCCC3)c2)CC1` [Compound 60, 3-[(1-acetyl-4-piperidyl)amino]-N-[(2R)-2-hydroxy-2-[(3S)-7-[(4-methyloxazol-5-yl)methoxy]-1,2,3,4-tetrahydroisoquinolin-3-yl]ethyl]-5-(1-piperidyl)benzamide], the IC50 on PRMT5 [1] was 50 to 500 nM; at PRMT5 [2], 50 to 500 nM; at PRMT5 [3], less than 50 nM; in test [4] it was no less than 10000 nM; in test [5] it was 1000 to 10000 nM. Moreover, on PRMT5 [3], the “SAM/MTA Ratio” value was “A (a Ki ratio greater than or equal to 10 fold between the Ki in the presence of SAM and the Ki in the presence of MTA)”. Moreover, the “MTAP Intact/Deleted Ratio” value in test [5] is “C* (an IC50 ratio of less than 3 fold between the IC50 in the HAP1 MTAP-intact cell line and the HAP1 MTAP-deleted cell line)”.
Turning to `Cc1ncoc1COc1ccc2c(c1)CN[C@H]([C@H](O)CNC(=O)c1ccc(OC3CCN(Cc4ccncc4)CC3)cc1)C2` [Compound 23, N—((R)-2-hydroxy-2-((S)-7-((4-methyloxazol-5-yl)methoxy)-1,2,3,4-tetrahydroisoquinolin-3-yl)ethyl)-4-((1-(pyridin-4-ylmethyl)piperidin-4-yl)oxy)benzamide], the IC50 is 50 to 500 nM on PRMT5 [1]; 50 to 500 nM at PRMT5 [2]; less than 50 nM at PRMT5 [3]; less than 1000 nM in test [4]; less than 1000 nM in test [5]. The “SAM/MTA Ratio” value at PRMT5 [3] was “A (a Ki ratio greater than or equal to 10 fold between the Ki in the presence of SAM and the Ki in the presence of MTA)”. Moreover, in test [5], the “MTAP Intact/Deleted Ratio” value was “B* (an IC50 ratio greater than or equal to 3 fold but lower than 10 fold between the IC50 in the HAP1 MTAP-intact cell line and the HAP1 MTAP-deleted cell line)”.
Take `Cc1ncoc1COc1ccc2c(c1)CN[C@H]([C@H](O)CNC(=O)c1cc(NC3CCC3)ncn1)C2` [Compound 32, 6-(cyclobutylamino)-N—((R)-2-hydroxy-2-((S)-7-((4-methyloxazol-5-yl)methoxy)-1,2,3,4-tetrahydroisoquinolin-3-yl)ethyl)pyrimidine-4-carboxamide]: the IC50 was 50 to 500 nM at PRMT5 [1]; 500 to 5000 nM at PRMT5 [2]; less than 50 nM at PRMT5 [3]; 1000 to 10000 nM in test [4]; less than 1000 nM in test [5]. Also, at PRMT5 [3], the “SAM/MTA Ratio” value was “A (a Ki ratio greater than or equal to 10 fold between the Ki in the presence of SAM and the Ki in the presence of MTA)”. The “MTAP Intact/Deleted Ratio” value in test [5] was “B* (an IC50 ratio greater than or equal to 3 fold but lower than 10 fold between the IC50 in the HAP1 MTAP-intact cell line and the HAP1 MTAP-deleted cell line)”.

The values are drawn from patent US12403137B2, “Compounds and methods of use” (Tango Therapeutics, Inc., priority 2019, dated 2025).
